Publication PMC10525927, “First Generation of Antioxidant Precursors for Bioisosteric Se-NSAIDs: Design, Synthesis, and In Vitro and In Vivo Anticancer Evaluation” (Antioxidants, 2023)

Legend:
[1] = DPPH radical scavenging assay; details: positive controls, each time point and concentration (0.03 and 0.06 mg/mL)
Protocol: Briefly, the compounds were dissolved at a concentration of 1 mg/mL in absolute methanol, and a dilution was prepared. […] Then, 100 µL of the DPPH solution was added to 100 µL of the compounds’ solution to a final concentration of 0.03 mg/mL or 0.06 mg/mL, and the decolorization of the purple radical to the yellowish reduced form was followed by recording the absorbance at 517 nm. Ascorbic acid (Asc) and Trolox were used as positive controls. Both of them, Asc and Trolox, were purchased from Sigma-Aldrich. Determinations were recorded at eight different time intervals from 0 to 120 min on a BioTeck PowerWave XS spectrophotometer, and the data were collected using KCJunior version 1.41. software. All the measurements were carried out in triplicate. Results are expressed as the percentage of the radical scavenged, calculated using the following formula: % DPPH radical scavenging = [(Acontrol − Asample)/Acontrol] × 100, wherein Acontrol refers to the absorbance of the negative control and Asample refers to the absorbance of the tested compounds.

HT-29 colon cancer cells = test system: HT-29 colon cancer cells; parameters: method as in PMID 26750401, PMID 32987314, PMID 33799070, PMID 36257283; details: MTT; parent NSAIDs for reference, some values obtained from the literature; cited from earlier work
H1299 lung cancer cells = test system: H1299 lung cancer cells; parameters: method as in PMID 26750401, PMID 32987314, PMID 33799070, PMID 36257283; details: MTT; parent NSAIDs for reference, some values obtained from the literature; cited from earlier work
A549 lung cancer cells = test system: A549 lung cancer cells; parameters: method as in PMID 26750401, PMID 32987314, PMID 33799070, PMID 36257283; details: MTT; parent NSAIDs for reference, some values obtained from the literature; cited from earlier work
[2] = test system: HCT-116 colon cancer cells; parameters: method as in PMID 26750401, PMID 32987314, PMID 33799070, PMID 36257283; details: MTT; parent NSAIDs for reference, some values obtained from the literature; cited from earlier work
[3] = test system: MDA-MB-231 breast cancer cells; parameters: method as in PMID 26750401, PMID 32987314, PMID 33799070, PMID 36257283; details: MTT; parent NSAIDs for reference, some values obtained from the literature; cited from earlier work
[4] = test system: T-47D breast cancer cells; parameters: method as in PMID 26750401, PMID 32987314, PMID 33799070, PMID 36257283; details: MTT; parent NSAIDs for reference, some values obtained from the literature; cited from earlier work
[5] = test system: DU-145 prostate cancer cells; parameters: method as in PMID 26750401, PMID 32987314, PMID 33799070, PMID 36257283; details: MTT; parent NSAIDs for reference, some values obtained from the literature; cited from earlier work
[6] = test system: PC-3 prostate cancer cells; parameters: method as in PMID 26750401, PMID 32987314, PMID 33799070, PMID 36257283; details: MTT; parent NSAIDs for reference, some values obtained from the literature; cited from earlier work

O=C1O[C@H]([C@@H](O)CO)C(O)=C1O [Asc, Ascorbic acid, reference compound]
maximal scavenging activity: DPPH radical scavenging activity [1]

CC(=O)Oc1ccccc1C(=O)O [ASA, aspirin]
> 50 µM: IC50 (HT-29 colon cancer cells) | IC50 (H1299 lung cancer cells) | IC50 (A549 lung cancer cells) | IC50 [2] | IC50 [3] | IC50 [4] | IC50 [5] | IC50 [6]

CC(C)Cc1ccc(C(C)C(=O)O)cc1 (stereo not shown) [Ibup, ibuprofen]
> 50 µM: IC50 (HT-29 colon cancer cells) | IC50 (H1299 lung cancer cells) | IC50 (A549 lung cancer cells) | IC50 [2] | IC50 [3] | IC50 [4] | IC50 [5] | IC50 [6]

COc1ccc2cc([C@H](C)C(=O)O)ccc2c1 [Nap, naproxen]
> 50 µM: IC50 (HT-29 colon cancer cells) | IC50 (H1299 lung cancer cells) | IC50 (A549 lung cancer cells) | IC50 [2] | IC50 [3] | IC50 [4] | IC50 [5] | IC50 [6]

Cc1c(C)c2c(c(C)c1O)CCC(C)(C(=O)O)O2 (stereo not shown) [Trolox, reference compound]
maximal scavenging activity: DPPH radical scavenging activity [1]

CC(C(=O)O)c1cccc(C(=O)c2ccccc2)c1 (stereo not shown) [Ket, ketoprofen]
> 50 µM: IC50 (HT-29 colon cancer cells) | IC50 (H1299 lung cancer cells) | IC50 (A549 lung cancer cells) | IC50 [2] | IC50 [3] | IC50 [4] | IC50 [5] | IC50 [6]
